The numbers were not newly measured in patent US10507204B2, “Pharmaceutical composition comprising amorphous lenalidomide” (SYNTHON B.V., priority 2014, dated 2019), which cites them from elsewhere.

As to `Nc1cccc2c1CN(C1CCC(=O)NC1=O)C2=O` (racemic) [Lenalidomide, (RS)-3-(4-Amino-1-oxo 1,3-dihydro-2H-isoindol-2-yl)piperidine-2,6-dione], the solubility in water result was “slightly soluble”.
